The values below are quoted from earlier work in patent US20240342250A1, “COMPOSITION AND METHODS OF TREATMENT USING […]-ENHANCED SUPPLEMENTATION” (Xygenyx Inc., priority 2023, published 2024).

For data set [1] the following is noted: generally considered safe and well-tolerated at doses of up to.
Data set [2] deals with skin. Particulars: topical, concentrations 0.5-5%.
The subject of data set [3] is skin.
The conditions of data set [4]: compared to alpha-tocopherol = 1.0.
For data set [5] the following is noted: even when dietary intake occurs in equal portions.
Data set [6] deals with wide dynamic range neurons in the ventroposterolateral nucleus of the thalamus. The note with it: is believed.
Data set [7] has as its system skin. The note with it: topical formulations; within four weeks of treatment.
The conditions of data set [8]: in vivo.
Another data set deals with symptoms of depression. Particulars: patients who did not respond to traditional antidepressant medications.
The subject of data set [9] is systemic inflammation, oxidative status, and liver cell metabolism associated with rheumatoid arthritis. Particulars: arthritic subjects.
Data set [10] relates to markers of inflammation in the blood. The note with it: individuals with metabolic syndrome.
Data set [11] relates to memory recall and cognitive function. The note with it: compared to placebo; 34 pairs of matched adolescent students.

Non-standard residues stand in square brackets, D forms with d. Residues, ends and D or L forms follow the SMILES beside them. Cit = NC(=O)NCCC[C@H](N)C(=O)O

In the case of `CCNC(=O)CC[C@H](N)C(=O)O` [Theanine], the “safe and well-tolerated dose” value in [1] is given as “up to 400 mg per day”.

In the case of `C=CCCCCCCCCC(=O)N[C@@H](Cc1ccccc1)C(=O)O` [UP, Undecylenoyl phenylalanine], in the data set on skin [2], the “time to skin lightening effects” value is on record as ≥ 7 days.

Turning to `CC12CCC(CC1)C(C)(C)O2` [eucalyptol, Eucalyptol], in the data set with skin [3], the “increase of transdermal drug uptake, factor” value was “more than 10”.

As for `Cc1c(O)cc2c(c1C)O[C@](C)(CCC[C@H](C)CCC[C@H](C)CCCC(C)C)CC2` [γ-tocopherol], the relative biological activity in data set [4] is listed as 0.1. The “concentration in vivo relative to alpha-tocopherol” value in data set [5] was “roughly 10%”.

Turning to `Cc1c(C)c2c(c(C)c1O)CC[C@@](C)(CCC[C@H](C)CCC[C@H](C)CCCC(C)C)O2` [α-tocopherol], for the setting “400-500 IU in combination with 10-20 mg beta-carotene and 400-500 mg vitamin C”, the “progression of age-related macular degeneration” value is recorded as “dramatically reduce the progression of age-related macular degeneration”. For the same compound, the “functional health of sperm” value (800-900 IU/day) is given as “improve functional health of sperm”. The “blood plasma concentration of F2-isoprostane” value (1600-3200 IU/day) was “significantly lower blood plasma concentration of F2-isoprostane”. Moreover, the “reduction of risk of coronary disease” value (dietary supplementation, doses up to 400 IU/day) was “up to 34%”. For the same compound, the “reduction of risk of developing neurodegenerative diseases such as Alzheimer's Syndrome or dementia” value (dietary supplementation, doses up to 400 IU/day, controlled trials) was ≤ 24%. Besides, the “reduction in the development of age-related cataracts” value (in combination with 10-20 mg beta-carotene and 400-500 mg vitamin C) is reported as 23%.

As to `CCCCCc1cc(O)c2c(c1)OC(C)(C)C1CCC(C)=CC21` (stereo not shown) [THC, Δ-9-tetrahydrocannabinol], in data set [6], the “potency in mediating pain relative to morphine” value is “ten times more powerful than morphine”.

Turning to `CC[C@H](C)[C@H](NC(=O)[C@H](CC(=O)O)NC(=O)[C@@H](N)CCCCN)C(=O)N[C@@H](CCCNC(N)=O)C(N)=O` [Tripeptide-10 citrulline] (H-KDI[Cit]-NH2), the improvement of suppleness in the data set with skin [7] is listed as ≤ 54%.

“HGH: hormone comprising a peptide chain that is synthesized in the pituitary gland”: in [8], the biological half-life is 10-20 minutes.

`CN1c2c([nH]c(N)nc2=O)NCC1CNc1ccc(C(=O)N[C@@H](CCC(=O)O)C(=O)O)cc1` (stereo partly shown) [5-MTHF, 5-methyltetrahydrofolate]: the symptoms of depression entry with symptoms of depression was “improved symptoms of depression”.

Consider `C=C1CC/C=C(\C)CC[C@@H]2[C@@H]1CC2(C)C` [β-caryophyllene], for which, in [9], the “protein carbonyl groups and myeloperoxidase activity in liver and plasma” value was “eliminated increases of protein carbonyl groups and myeloperoxidase activity”; the “swelling of joints and lymph nodes, circulating and articular leukocytes” value is “reduced swelling of joints and lymph nodes as well as the number of circulating and articular leukocytes”.

Turning to `Cc1cc(O)cc2c1O[C@](C)(CCC[C@H](C)CCC[C@H](C)CCCC(C)C)CC2` [δ-tocopherol], in [10], the “markers of inflammation in the blood” value is “reduced markers of inflammation in the blood”. The relative biological activity in data set [4] is 0.03.

Regarding `CC(C)[C@@H]1CC[C@@H](C)C[C@H]1O` [Menthol], the “increase of transdermal drug uptake, factor” value in the data set with skin [3] is reported as ≥ 10.

Regarding `C/C=C1\[C@H]2C=C(C)C[C@]1(N)c1ccc(=O)[nH]c1C2` [Huperzine A], in [11], the “memory recall and cognitive function” value is “significant improvements in memory recall and cognitive function”.

In the case of `Cc1cc(O)c(C)c2c1O[C@](C)(CCC[C@H](C)CCC[C@H](C)CCCC(C)C)CC2` [β-tocopherol], the relative biological activity in [4] is 0.5.
